In PMC9311539, “Antibacterial Activity against Clinical Isolates and In Vivo Efficacy of Coralmycins” (Antibiotics, 2022):
≈ marks a conversion by molar mass, not a printed value. Read-outs that look alike come from different tables or passages of the source.

Columns and labels:
[1] = system: Vancomycin-sensitive E. faecium; assay: MIC, broth microdilution, clinical isolates: vancomycin-sensitive E. faecium; type: cell-based, Enterococcus faecium; conditions: Enterococcus faecium, 32 clinical isolates; for MIC50: read-out: MIC50; for MIC90: read-out: MIC90
Procedure: (§1) To assess the MICs for antibiotic susceptibility, Gram-positive bacteria isolated from human clinical specimens were obtained from several general hospitals in Seoul, Korea, during 2002–2018. Staphylococcus aureus Giorgio and Streptococcus pneumoniae ATCC49619 were used to test in vivo efficacies against […], in mice.
(§2) The MICs of the antimicrobial agents were determined by a twofold microdilution broth method, as described by the Clinical and Laboratory Standards Institute. Briefly, test organisms were grown on Mueller–Hinton agar (MHA, BD Difco, Sparks, MD, USA) plates, subcultured into cation-adjusted Mueller–Hinton broth (CAMHB, BD Difco, Sparks, MD, USA), and incubated for 18 h at 35 °C. For S. pneumoniae culture, 5% sheep blood (Hanil Comed, Seongnam, Korea) was added. The cultured bacteria were diluted using phosphate-buffered saline (PBS) to achieve a bacterial cell density of approximately 5 × 10^6 CFU/mL. All test organisms were loaded into 96-well plates containing serial dilutions of the antimicrobial agents to achieve a concentration of 5 × 10^4 CFU/well. The plates were incubated at 35 °C for 18–20 h and examined for bacterial growth.

S. pneumoniae = assay: MIC, broth microdilution, clinical isolates: S. pneumoniae; type: cell-based, Streptococcus pneumoniae; conditions: for MIC50: read-out: MIC50
Procedure: as §1, §2

VRE = assay: MIC, broth microdilution, clinical isolates: VRE; type: cell-based, vancomycin-resistant Enterococcus; conditions: for MIC50: read-out: MIC50
Procedure: as §1, §2

[2] = system: Vancomycin-sensitive E. faecalis; assay: MIC, broth microdilution, clinical isolates: vancomycin-sensitive E. faecalis; type: cell-based, Enterococcus faecalis; conditions: Enterococcus faecalis, 32 clinical isolates; for MIC50: read-out: MIC50; for MIC90: read-out: MIC90
Procedure: as §1, §2

MSSA = assay: MIC, broth microdilution, clinical isolates: MSSA; type: cell-based; conditions: Staphylococcus aureus; for MIC90: read-out: MIC90
Procedure: as §1, §2

MRSA = assay: MIC, broth microdilution, clinical isolates: MRSA; type: cell-based, Staphylococcus aureus; conditions: Staphylococcus aureus, MRSA, 42 clinical isolates; for MIC50: read-out: MIC50; for MIC90: read-out: MIC90
Procedure: as §1, §2

[3] = system: CNS (coagulase-negative staphylococci); assay: MIC, broth microdilution, clinical isolates: CNS; type: cell-based; conditions: 31 clinical isolates; for MIC50: read-out: MIC50; for MIC90: read-out: MIC90
Procedure: as §1, §2

[4] = highly protein-bound antibacterial agents in clinical use; cited from earlier work
MRSA CCARM 3167 = assay: Time-kill assay, MRSA CCARM 3167; type: cell-based, Staphylococcus aureus; conditions: 2× and 4× MIC, 24 h
Procedure: (§3) Time-kill analysis was performed by the NCCLS M26-A method. The test organisms (S. aureus Giorgio, S. pneumoniae ATCC49619, MRSA CCARM 3167, and VRE 3) incubated in CAMHB for 18 h at 35 °C were diluted to 10^5 CFU/mL with fresh CAMHB, and the diluted cultures were preincubated for 2 h. For S. pneumoniae culture, 5% sheep blood (Hanil Comed, Seongnam, Korea) was added. […] Culture aliquots (0.1 mL) were removed after 0, 2, 4, 6 and 24 h of incubation, and serial 10-fold dilutions were prepared in saline as needed. The numbers of viable cells were determined on drug-free MHA plates after 20 h of incubation. A compound was considered bactericidal if the original inoculum was reduced by 3 log CFU/mL (99.9%) at each concentration or was considered bacteriostatic if the inoculum was reduced by 0–3 log CFU/mL.

S. aureus Giorgio = assay: Time-kill assay, S. aureus Giorgio; type: cell-based, Staphylococcus aureus; conditions: 2× and 4× MIC, 24 h
Procedure: as §3

VRE 3 = assay: Time-kill assay, VRE 3; type: cell-based, vancomycin-resistant Enterococcus; conditions: 2× and 4× MIC, 24 h
Procedure: as §3

S. pneumoniae ATCC49619 = assay: Time-kill assay, S. pneumoniae ATCC49619; type: cell-based, Streptococcus pneumoniae; conditions: 2× and 4× MIC, 24 h
Procedure: as §3

[5] = Streptococcus pneumoniae, 27 S. pneumoniae isolates, read-out: MIC90
[6] = Streptococcus pneumoniae, 27 clinical isolates
[7] = Enterococcus, VRE, 46 clinical isolates
[8] = Enterococcus, VRE, 46 clinical isolates, read-out: MIC90
[9] = 26 clinical isolates, read-out: MIC50

| Molecule | MIC50 [1] | MIC90 [1] | MIC90 (S. pneumoniae; 27 clinical isolates) | MIC90 (S. pneumoniae; [5]) | MIC50 (S. pneumoniae; [6]) | MIC50 (VRE; [7]) | MIC90 (VRE; [8]) | MIC50 [2] | MIC90 [2] | MIC50 (MSSA; [9]) | MIC90 (MSSA; 26 clinical isolates) | MIC50 (MRSA) | MIC90 (MRSA) | MIC50 [3] | MIC90 [3] | further results |
| --- | --- | --- | --- | --- | --- | --- | --- | --- | --- | --- | --- | --- | --- | --- | --- | --- |
| CO[C@@]1(NC(=O)Cc2cccs2)C(=O)N2C(C(=O)O)=C(COC(N)=O)CS[C@@H]21 [Cefoxitin] | > 32 µg/mL | > 32 µg/mL | >32 µg/mL | > 32 µg/mL | > 32 µg/mL | > 32 µg/mL | > 32 µg/mL | > 32 µg/mL | > 32 µg/mL | 4 µg/mL (≈ 9.36 µM) | 4 µg/mL (≈ 9.36 µM) |  |  |  |  |  |
| CC(C)(O/N=C(\C(=O)N[C@@H]1C(=O)N2C(C(=O)[O-])=C(C[n+]3ccccc3)CS[C@H]12)c1csc(N)n1)C(=O)O [Ceftazidime] | > 32 µg/mL | > 32 µg/mL | >32 µg/mL | > 32 µg/mL | > 32 µg/mL | > 32 µg/mL | > 32 µg/mL | > 32 µg/mL | > 32 µg/mL | 8 µg/mL (≈ 14.6 µM) | 16 µg/mL (≈ 29.3 µM) | > 32 µg/mL | > 32 µg/mL | 32 µg/mL (≈ 58.5 µM) | > 32 µg/mL |  |
| CCCCCCCCCC(=O)N[C@@H](Cc1c[nH]c2ccccc12)C(=O)N[C@H](CC(N)=O)C(=O)N[C@@H](CC(=O)O)C(=O)N[C@@H]1C(=O)NCC(=O)N[C@@H](CCCN)C(=O)N[C@@H](CC(=O)O)C(=O)N[C@H](C)C(=O)N[C@@H](CC(=O)O)C(=O)NCC(=O)N[C@H](CO)C(=O)N[C@@H]([C@H](C)CC(=O)O)C(=O)N[C@@H](CC(=O)c2ccccc2N)C(=O)O[C@@H]1C [Daptomycin] | 4 µg/mL (≈ 2.47 µM) | 8 µg/mL (≈ 4.94 µM) | 8 µg/mL (≈ 4.94 µM) | 8 µg/mL (≈ 4.94 µM) | 2 µg/mL (≈ 1.23 µM) | 4 µg/mL (≈ 2.47 µM) |  | 4 µg/mL (≈ 2.47 µM) | 8 µg/mL (≈ 4.94 µM) | 2 µg/mL (≈ 1.23 µM) | 4 µg/mL (≈ 2.47 µM) | 2 µg/mL (≈ 1.23 µM) | 4 µg/mL (≈ 2.47 µM) | 2 µg/mL (≈ 1.23 µM) | 4 µg/mL (≈ 2.47 µM) | MIC90 (VRE; 46 clinical isolates): 8 µg/mL (≈ 4.94 µM); MIC90 (VRE; Enterococcus, 46 VRE isolates, read-out: MIC90): 8 µg/mL (≈ 4.94 µM) |
| CNC(C)C1CCC(N)C(OC2C(N)CC(N)C(OC3OCC(C)(O)C(NC)C3O)C2O)O1 (centres unmarked) [Gentamicin] | > 32 µg/mL | > 32 µg/mL |  |  | 32 µg/mL (≈ 67 µM) | > 32 µg/mL | > 32 µg/mL | > 32 µg/mL | > 32 µg/mL | 1 µg/mL (≈ 2.09 µM) | > 32 µg/mL | 32 µg/mL (≈ 67 µM) | > 32 µg/mL | > 32 µg/mL | > 32 µg/mL | MIC90 (S. pneumoniae; Streptococcus pneumoniae, 27 clinical isolates, read-out: MIC90): > 32 µg/mL |
| C[C@H]1COc2c(N3CCN(C)CC3)c(F)cc3c(=O)c(C(=O)O)cn1c23 [Levofloxacin] | 16 µg/mL (≈ 44.3 µM) | 32 µg/mL (≈ 88.6 µM) | 16 µg/mL (≈ 44.3 µM) | 16 µg/mL (≈ 44.3 µM) | 0.5 µg/mL (≈ 1.38 µM) | > 32 µg/mL | > 32 µg/mL | 2 µg/mL (≈ 5.53 µM) | 32 µg/mL (≈ 88.6 µM) | 0.25 µg/mL (≈ 0.692 µM) | 0.5 µg/mL (≈ 1.38 µM) | 16 µg/mL (≈ 44.3 µM) | > 32 µg/mL | 8 µg/mL (≈ 22.1 µM) | > 32 µg/mL |  |
| C[C@@H](O)[C@H]1C(=O)N2C(C(=O)O)=C(S[C@@H]3CN[C@H](C(=O)N(C)C)C3)[C@H](C)[C@H]12 [Meropenem] | > 32 µg/mL | > 32 µg/mL | 4 µg/mL (≈ 10.4 µM) | 4 µg/mL (≈ 10.4 µM) | 0.5 µg/mL (≈ 1.3 µM) | > 32 µg/mL | > 32 µg/mL | 4 µg/mL (≈ 10.4 µM) | 16 µg/mL (≈ 41.7 µM) |  | 0.25 µg/mL (≈ 0.652 µM) |  |  |  |  | MIC50 (MSSA): 0.125 µg/mL (≈ 0.326 µM) |
| Cc1onc(-c2ccccc2)c1C(=O)N[C@@H]1C(=O)N2[C@@H]1SC(C)(C)[C@@H]2C(=O)O [Oxacillin] |  |  |  |  |  |  |  |  |  | 0.5 µg/mL (≈ 1.25 µM) | 1 µg/mL (≈ 2.49 µM) | > 32 µg/mL | > 32 µg/mL |  |  |  |
| CO/N=C(\C(=O)N[C@@H]1C(=O)N2C(C(=O)O)=C(CSc3nc(=O)c(=O)[nH]n3C)CS[C@H]12)c1csc(N)n1 [ceftriaxone] |  |  |  |  |  |  |  |  |  |  |  |  |  |  |  | protein-bound [4]: > 90% |
| O=C(O)c1cn(C2CC2)c2cc(N3CCNCC3)c(F)cc2c1=O [ciprofloxacin] |  |  |  |  |  |  |  |  |  |  |  |  |  |  |  | time-kill activity (MRSA CCARM 3167): bactericidal (considered bactericidal if the original inoculum was reduced by 3 log CFU/mL (99.9%) at each concentration); time-kill activity (S. aureus Giorgio): bactericidal (considered bactericidal if the original inoculum was reduced by 3 log CFU/mL (99.9%) at each concentration); time-kill activity (VRE 3): bactericidal (considered bactericidal if the original inoculum was reduced by 3 log CFU/mL (99.9%) at each concentration); time-kill activity (S. pneumoniae ATCC49619): bactericidal (considered bactericidal if the original inoculum was reduced by 3 log CFU/mL (99.9%) at each concentration) |
| teicoplanin |  |  |  |  |  |  |  |  |  |  |  |  |  |  |  | protein-bound [4]: > 90% |
